How the values were obtained:
[1] = test system: high-grade glioma relapsed after failure of standard treatment; assay: Clinical trial of chlorogenic acid for injection, effectiveness by RANO standard and survival; type: in vivo, patients
Method: A total of 23 subjects completed the test in this trial, including 5 patients with grade III gliomas and 18 patients with grade IV gliomas. […] The subjects included in this trial were all patients with high-grade glioma who relapsed after surgery and didn't response to the standard therapy. The standard treatment was chemotherapy and radiotherapy. […] Ineffective means tumor progression. […] The effectiveness evaluation was performed according to the RANO standard, and the specific RANO standards are as follows: [table] […] A total of 26 subjects were enrolled in the trial, 3 cases were released early, and 23 cases can be counted: […]

[2] = test system: glioblastoma that relapsed after surgery and on which the standard therapy failed; assay: Tumor inhibition rate in animal model of glioblastoma; type: in vivo, rats; conditions: for Tumor inhibition rate (%) / Tumor weight: 5th day after drug-withdrawal
Method: (§1) 1.1 Cell culture: The pathological tissue for cell culture was a tissue sample removed surgically from high-grade brain tumor that relapsed after surgery and on which the standard therapy failed. Glioblasts cells, high-grade anaplastic astrocytoma cells, high-grade anaplastic oligodendrocytoma cells, high-grade anaplastic oligoastrocytoma cells, and brain tumor cells with unclear pathological types, obtained by separation and culture of pathological tissue, were seeded in DMEM complete culture medium containing 10% FBS and routinely incubated in a 37° C., 5% carbon dioxide incubator under saturated humidity. TMZ was dissolved in DMSO solution, and the mass concentration of the stock solution was 100 mg/mL. Tumor cells in the logarithmic growth phase were diluted to obtain a cell suspension at 1×10^5 cells/mL, and the initial inducer dose 0.25 μg/mL of TMZ was added after routinely culturing for 24 h. The culture was continued for 15-20 days, and after stabilization of cell growth, the induced concentration of the drug was doubled, then the cells were further cultured for 15-20 d at each induced concentration. Thus, the final concentration of TMZ was 16.00 μg/mL, and various pathological types of cell suspensions were obtained.
(§2) The cell suspension obtained in step 1 was inoculated into rats in situ, to prepare animal models of glioblastoma that relapsed after surgery and on which the standard therapy failed, and the animals were divided into test groups listed in the following table. […] The tumor inhibition rate was calculated.

[3] = test system: high-grade anaplastic astrocytoma that relapsed after surgery and on which the standard therapy failed; assay: Tumor inhibition rate in animal model of high-grade anaplastic astrocytoma; type: in vivo, rats; conditions: for Tumor inhibition rate (%) / Tumor weight: 5th day after drug-withdrawal
Method: as §1
(§3) The cell suspension obtained in step 1 was inoculated into rats in situ, to prepare animal models of high-grade anaplastic astrocytoma that relapsed after surgery and on which the standard therapy failed, and the animals were divided into test groups listed in the following table. […] On the 5th day after drug-withdrawal, the size of the in situ tumor in the rat brain was observed, and the tumor was weighed. The tumor inhibition rate was calculated.

[4] = test system: high-grade anaplastic oligodendrocytoma that relapsed after surgery and on which the standard therapy failed; assay: Tumor inhibition rate in animal model of high-grade anaplastic oligodendrocytoma; type: in vivo, rats; conditions: for Tumor inhibition rate (%) / Tumor weight: 5th day after drug-withdrawal
Method: as §1
as §2, with “high-grade anaplastic oligodendrocytoma” for “glioblastoma”

[5] = test system: high-grade anaplastic oligoastrocytoma that relapsed after surgery and on which the standard therapy failed; assay: Tumor inhibition rate in animal model of high-grade anaplastic oligoastrocytoma; type: in vivo, rats; conditions: for Tumor inhibition rate (%) / Tumor weight: 5th day after drug-withdrawal
Method: as §1
as §2, with “high-grade anaplastic oligoastrocytoma” for “glioblastoma”

[6] = test system: brain tumor with unclear pathological types that relapsed after surgery and on which the standard therapy failed; assay: Tumor inhibition rate in animal model of brain tumors with unclear pathological types; type: in vivo, rats; conditions: for Tumor inhibition rate (%) / Tumor weight: 5th day after drug-withdrawal
Method: as §1
as §3, with “brain tumor with unclear pathological types” for “high-grade anaplastic astrocytoma”

[7] = dose 35 mg/kg i.p. daily 10 days

`O=C(/C=C/c1ccc(O)c(O)c1)O[C@@H]1C[C@](O)(C(=O)O)C[C@@H](O)[C@H]1O` [Chlorogenic acid, chlorogenic acid] was tested, and the response rate ([1]; 9 survival subjects with grade IV glioblastoma, 1 cycle) was 88.9%, the response rate ([1]; nine dead subjects with grade IV glioma, one cycle) was 11.1% and the “Tumor inhibition rate (%)” value [2, 7] was 52.2%. For the same molecule, the “therapeutic effect in words” value ([2]; summary of the glioblastoma model table) was “significant inhibitory effect”, the “Tumor inhibition rate (%)” value [3, 7] was 50.2% and the Tumor weight [3, 7] was 1.12 ± 0.10. For the same molecule, the “therapeutic effect in words” value ([3]; summary of the anaplastic astrocytoma model table) was “significant inhibitory effect”, the “Tumor inhibition rate (%)” value [4, 7] was 52.6% and the “therapeutic effect in words” value ([4]; summary of the anaplastic oligodendrocytoma model table) was “significant inhibitory effect”. The “Tumor inhibition rate (%)” value [5, 7] was 47.0%, the “therapeutic effect in words” value ([5]; summary of the anaplastic oligoastrocytoma model table) was “significant inhibitory effect” and the “Tumor inhibition rate (%)” value [6, 7] was 44.5%. For the same molecule, the Tumor weight [6, 7] was 1.21 ± 0.11 and the “therapeutic effect in words” value ([6]; summary of the table for brain tumors with unclear pathological types) was “significant inhibitory effect”.
For `Cn1nnc2c(C(N)=O)ncn2c1=O` [temozolomide], the “Tumor inhibition rate (%)” value ([2]; dose 10 mg/kg oral 5 days) was 14.6%, the Tumor weight ([2]; dose 10 mg/kg oral 5 days) was 1.75 ± 0.14 and the “Tumor inhibition rate (%)” value ([2]; dose 20 mg/kg oral 5 days) was 24.1%. For the same molecule, the Tumor weight ([2]; dose 20 mg/kg oral 5 days) was 1.54 ± 0.10, the “Tumor inhibition rate (%)” value ([3]; dose 10 mg/kg oral 5 days) was 13.3% and the Tumor weight ([3]; dose 10 mg/kg oral 5 days) was 1.95 ± 0.18. For the same molecule, the “Tumor inhibition rate (%)” value ([3]; dose 20 mg/kg oral 5 days) was 20.9%, the Tumor weight ([3]; dose 20 mg/kg oral 5 days) was 1.78 ± 0.11 and the “Tumor inhibition rate (%)” value ([4]; dose 10 mg/kg oral 5 days) was 15.5%. For the same molecule, the Tumor weight ([4]; dose 10 mg/kg oral 5 days) was 1.80 ± 0.15, the “Tumor inhibition rate (%)” value ([4]; dose 20 mg/kg oral 5 days) was 22.5% and the Tumor weight ([4]; dose 20 mg/kg oral 5 days) was 1.65 ± 0.14. The “Tumor inhibition rate (%)” value ([5]; dose 10 mg/kg oral 5 days) was 13.1%, the Tumor weight ([5]; dose 10 mg/kg oral 5 days) was 1.72 ± 0.14 and the “Tumor inhibition rate (%)” value ([5]; dose 20 mg/kg oral 5 days) was 20.2%. The Tumor weight ([5]; dose 20 mg/kg oral 5 days) was 1.58 ± 0.12, the “Tumor inhibition rate (%)” value ([6]; dose 10 mg/kg oral 5 days) was 16.0% and the Tumor weight ([6]; dose 10 mg/kg oral 5 days) was 1.83 ± 0.13. The “Tumor inhibition rate (%)” value ([6]; dose 20 mg/kg oral 5 days) was 25.7% and the Tumor weight ([6]; dose 20 mg/kg oral 5 days) was 1.62 ± 0.14.
